Data taken from patent US8969622B2, “Dendritic molecular intracellular transporters and methods of making and using same” (Vanderbilt University, priority 2006, dated 2015).

Test system: human microvascular endothelial cells (HMEC)
Assay: Internalization into human microvascular endothelial cells (HMEC), temperature effect and controls
Assay type: cell-based
Settings: 10 uM, 60 min, 37° C.
Experimental: The human microvascular endothelial cells (HMEC) cells were incubated with conjugates (10 uM) for 2.5 min at 4° C. or at 37° C.
The HMEC cells were incubated with conjugates (1 uM) for 30 min at 4° C. or at 37° C.
(b) The HMEC cells were incubated with Boc-protected guanidinylated FD-2 (10 uM) for 60 min at 37° C.
Internalization of FD-1 and FD-2 in mammalian cells was assessed using two different cell lines and a previously described method [Futaki, S.; Nakase, I.; Suzuki, T.; Youjun, Y.; Sugiura, Y. Biochemistry 2002, 41, 7925.] with NIH-3T3 fibroblasts and HMEC (human microvascular endothelial cells) and a Zeiss LSM 510 confocal microscope. […] [Futaki, S.; Nakase, I.; Suzuki, T.; Youjun, Y.; Sugiura, Y. Biochemistry 2002, 41, 7925.; Vivès, E.; Brodin, P.; Lebleu, B. J. Biol. Chem. 1997, 272, 16010.] Furthermore, the extent of internalization increased in an incubation time-dependent manner, and it was observed that after just 10 min, the fluorescence intensity of cells treated with FD-2 was near saturation. […] Without wishing to be bound by theory, it is believed that the length of the spacer at the terminal generation of the dendrimer can not only control the uptake rate, [Wender, P. A.; Kreider, E.; Pelkey, E. T.; Steinman, L.; Rothbard, J. B.; VanDeusen, C. L. Org. Lett. 2005, 7, 4815.] but also regulate the subcellular localization of the molecule and its putative cargo. […]

Substance: fluorescein isothiocyanate [free FITC]
- fluorescence of treated cells (control experiments): no
